# From ChEMBL document CHEMBL3085649, “2'-Deoxyuridine 5'-monophosphate substrate displacement in thymidylate synthase through 6-hydroxy-2H-naphtho[1,8-bc]furan-2-one derivatives” (J Med Chem, 2013)
# The source made the active and inactive calls. No cut-off for these calls is given here.
# How the values were obtained:
# Enterococcus faecalis = experiment: Inhibition of Enterococcus fecalis thymidylate synthase using MTHF and dUMP as substrates at 100 uM
# Escherichia coli = experiment: Inhibition of Escherichia coli thymidylate synthase using MTHF and dUMP as substrates at 100 uM
# Thymidylate synthase [1] = target: T1, Thymidylate synthase (Pneumocystis carinii, UniProt P13100); experiment: Inhibition of Pneumocystis carinii thymidylate synthase using MTHF and dUMP as substrates
# T1 sequence (P13100 whole entry): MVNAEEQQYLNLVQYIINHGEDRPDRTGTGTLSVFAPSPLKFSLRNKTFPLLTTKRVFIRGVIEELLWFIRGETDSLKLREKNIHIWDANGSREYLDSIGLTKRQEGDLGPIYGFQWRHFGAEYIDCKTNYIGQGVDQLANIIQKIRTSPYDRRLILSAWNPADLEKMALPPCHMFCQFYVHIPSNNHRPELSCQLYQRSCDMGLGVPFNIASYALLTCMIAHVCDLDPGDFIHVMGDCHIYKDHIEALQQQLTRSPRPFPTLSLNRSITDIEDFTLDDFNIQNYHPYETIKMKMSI
# Thymidylate synthase [2] = target: T2, Thymidylate synthase (Lactobacillus casei, UniProt P00469); experiment: Inhibition of Lactobacillus casei thymidylate synthase using MTHF and dUMP as substrates; set-up: species or system Lacticaseibacillus casei
# T2 sequence (P00469 whole entry): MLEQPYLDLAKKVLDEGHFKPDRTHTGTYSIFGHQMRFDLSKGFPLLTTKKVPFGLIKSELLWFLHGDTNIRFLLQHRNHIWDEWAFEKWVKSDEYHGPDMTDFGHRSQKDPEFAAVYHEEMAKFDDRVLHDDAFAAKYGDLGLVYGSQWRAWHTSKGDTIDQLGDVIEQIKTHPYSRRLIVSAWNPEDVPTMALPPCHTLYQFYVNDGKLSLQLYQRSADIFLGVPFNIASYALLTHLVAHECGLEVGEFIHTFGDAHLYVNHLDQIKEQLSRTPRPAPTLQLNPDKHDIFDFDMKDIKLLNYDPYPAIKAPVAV
# [3] = target: Thymidylate synthase (Homo sapiens) (UniProt P04818); experiment: Inhibition of human thymidylate synthase using MTHF and dUMP as substrates at 100 uM
# Chain of Thymidylate synthase (Homo sapiens) (P04818 2-313 limits assumed): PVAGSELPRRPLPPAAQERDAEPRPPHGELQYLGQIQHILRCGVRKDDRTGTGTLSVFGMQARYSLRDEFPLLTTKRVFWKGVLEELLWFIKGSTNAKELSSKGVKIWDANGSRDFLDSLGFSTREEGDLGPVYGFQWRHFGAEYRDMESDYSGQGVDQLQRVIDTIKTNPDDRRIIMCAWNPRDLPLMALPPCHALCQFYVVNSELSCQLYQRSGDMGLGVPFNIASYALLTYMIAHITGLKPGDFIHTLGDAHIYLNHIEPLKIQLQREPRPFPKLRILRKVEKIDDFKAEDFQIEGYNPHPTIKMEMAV
# [4] = Inhibition of Enterococcus fecalis thymidylate synthase using MTHF and dUMP as substrates; set-up: species or system Enterococcus faecalis
# [5] = target: T3, Thymidylate synthase (Pneumocystis carinii) (UniProt P13100); experiment: Inhibition of Pneumocystis carinii thymidylate synthase using MTHF and dUMP as substrates at 100 uM
# T3 sequence (whole entry): T1 sequence (P13100 whole entry)
# [6] = Inhibition of Escherichia coli thymidylate synthase using MTHF and dUMP as substrates
# [7] = target: T4, Thymidylate synthase (Lactobacillus casei) (UniProt P00469); experiment: Inhibition of Lactobacillus casei thymidylate synthase using MTHF and dUMP as substrates at 100 uM; conditions: Lacticaseibacillus casei
# T4 sequence (whole entry): T2 sequence (P00469 whole entry)
Structure (SMILES),inhibition (Enterococcus faecalis),inhibition (Escherichia coli),Ki (Thymidylate synthase [1]) [µM],Ki (Thymidylate synthase [2]) [µM],inhibition [3],Ki [4] [µM],inhibition [5],Ki [6] [µM],inhibition [7]
C/C=C/C(=O)Oc1ccc2c3c(cccc13)C(=O)O2,inactive,inactive,10,6,inactive,,,,
O=C(Oc1ccc2c3c(cccc13)C(=O)O2)c1ccco1,,inactive,15,13,,20,,,
CC(C)COC(=O)Oc1ccc2c3c(cccc13)C(=O)O2,inactive,inactive,,9,inactive,,inactive,,
CCOC(=O)Oc1ccc2c3c(cccc13)C(=O)O2,,,34,10,,37,,67,
O=C1Oc2ccc(OC(=O)C3CCCCC3)c3cccc1c23,inactive,,18,49,inactive,,,66,
O=C(Oc1ccc2c3c(cccc13)C(=O)O2)c1ccc2c(c1)OCO2,inactive,inactive,,,inactive,,inactive,,inactive
O=C(Oc1ccc2c3c(cccc13)C(=O)O2)c1ccc([N+](=O)[O-])cc1,,,3.5,1.2,,27,,6,
O=C(Oc1ccc2c3c(cccc13)C(=O)O2)c1cccc(C(F)(F)F)c1,,inactive,,33,inactive,41,inactive,,
O=C(Oc1ccc2c3c(cccc13)C(=O)O2)c1ccc(SC(F)(F)F)cc1,inactive,inactive,,,inactive,,inactive,,inactive
N#Cc1cccc(C(=O)Oc2ccc3c4c(cccc24)C(=O)O3)c1,,,0.31,0.39,,14,,4,
C=CC(=O)Oc1ccc2c3c(cccc13)C(=O)O2,,,19,10,,41,,,
